Results taken from patent US6448034B1, “Production of variant nisin” (priority 1994, dated 2002).
Converted amounts (≈) assume the structure as drawn.

Key:
[1] = tested on: Lactobacillus helveticus CH-1; assay: Plate diffusion bioassay of cell-free extracts / culture supernatants; assay type: cell-based; conditions: for Activity (% of wt): antimicrobial activity in culture supernatants of gene-replaced strains, plate diffusion bioassays; for nisin activity (% of wild type), gene replacement: functional nisA gene incorporated in the chromosome of FI7990 in place of nisA deletion
Protocol: 150 μl samples of cell free extracts from strains: 4, FI5876; 5, FI7990; 6, FI8070; 7, FI8198; 8, FI8199 were loaded into wells bored in MRS agar seeded with the indicator strains Lactobacillus helveticus CH-1. Plates were incubated overnight at 42° C. Standards included on the assay plate are: 1,50; 2,100; 3,200; 9,300; 10,400 U/ml.
Nisin activity in Lactococcal strains was assayed by both deferred and direct means. Plate diffusion bioassays were performed as previously described (Dodd et al (1992) Appl. Environ. Microbiol. 58, 3683-3693. Colonies growing on the surface of a GM17 plate were directly assayed by inverting over chloroform for 12 minutes and overlaying with agar seeded with the nisin sensitive L. lactis strain MG1614. Plates were incubated overnight and zone sizes around colonies compared with those of controls. Nisin immunity was determined by streaking cultures on a series of GM17 agar plates containing an increasing concentration of nisin and assessing the degree of growth at the different nisin levels. Control cultures (FI5876, positive) and MG1614 (negative) were included on each plate.
This corresponds to an increase of approximately 50% of nisin A levels, under the conditions used here (Table 1). This higher level of production was not found in the extracts of FI8199, producing the double mutant nisin A/Dha5A,Dha33A. […] In all cases the yield for a particular nisin variant was higher when using this gene replacement strategy than when the equivalent plasmid-encoded gene was employed in a plasmid complementation system (Table 3, Dodd et al (1992) (1993) supra).

FI7847 [nisA-(fs)] = assay: Induction by nisin / nisin variants as inducing agent; assay type: cell-based, L. lactis; parameters: Induction: unit not given here; conditions: for Induction: strain FI7847
Protocol: A particularly preferred embodiment of the third aspect of the invention is wherein the cells are cultured in the presence of nisA nisin or a variant nisin which can induce nisin expression. […] By adding sub-inhibitory concentrations of nisin to the growth medium, during fermentation, higher levels of the variant nisin are produced. Any variants that are less efficient as inducing agents benefit from the inclusion of nisin in the growth medium (ie a nisin induction step in the purification procedure). The amount of induction varies depending on the initial induction capacity of any particular variant (with I30W nisin A production more than doubled as a result of induction). Induction may be routinely included in the method as a means of maximising production levels. Any concerns about contamination with the wild type molecule are minimal as the nisin concentration required for induction is negligible compared to the amount of nisin variant being purified. Conveniently, the nisA nisin is a minimum amount that provides maximal induction of nisin production. This amount can be determined empirically by a person skilled in the art. Suitable nisA nisin concentrations for induction in this embodiment are from 1 nM to 500 nM, preferably 10 nM to 250 nM, more preferably 50 nM to 150 nM, most preferably 100 nM.
In some circumstances it is desirable to add nisA nisin as an inducer.

[2] = tested on: sensitive L. Lactis strain MG1614; assay: Minimum inhibitory concentration (MIC); assay type: cell-based; conditions: Table 5
[3] = tested on: sensitive indicator strains; conditions: work described in WO 93/20213; cited from earlier work
[4] = tested on: Lactobacillus helveticus CH-1; conditions: plate diffusion bioassay; plasmid-encoded nisA gene complementing nisA deficiency in host strain FI7332; cited from earlier work

Row | Compound | Activity (% of wt) [1] | Induction (FI7847 [nisA-(fs)]; inducing agent at 100 ng ml^−1) | MIC [2] | further results
1 | C=C(NC(=O)[C@@H](NC(=O)[C@H](Cc1c[nH]cn1)NC(=O)[C@H](Cc1c[nH]c2ccccc12)NC(=O)[C@H](CO)NC(=O)[C@@H]1CS[C@@H](C)[C@H]2NC(=O)[C@H](C)NC(=O)[C@H](NC(=O)[C@H](CCCCN)NC(=O)[C@H](CCSC)NC(=O)[C@H](CC(N)=O)NC(=O)[C@@H]3CS[C@@H](C)[C@@H](NC(=O)[C@H](CCCCN)NC(=O)[C@@H]4CS[C@@H](C)[C@@H](NC(=O)[C@@H]5CSC[C@@H](NC(=O)/C(=C/C)NC(=O)[C@@H](N)[C@@H](C)CC)C(=O)N[C@@H]([C@@H](C)CC)C(=O)NC(=C)C(=O)N[C@@H](CC(C)C)C(=O)N5)C(=O)N5CCC[C@H]5C(=O)NCC(=O)N4)C(=O)NCC(=O)N[C@@H](C)C(=O)N[C@@H](CC(C)C)C(=O)N[C@@H](CCSC)C(=O)NCC(=O)N3)[C@H](C)SC[C@H](NC2=O)C(=O)N[C@@H](Cc2c[nH]cn2)C(=O)N1)C(C)C)C(=O)N[C@@H](CCCCN)C(=O)O [I30W] | <1 % of wt | 41 | 160 µg/mL (≈ 46.7 µM) | function as inducer of its own biosynthesis (FI7847 [nisA-(fs)]): does not function well as an inducer of its own biosynthesis
2 | C=C(NC(=O)[C@@H](NC(=O)[C@H](Cc1c[nH]cn1)NC(=O)[C@@H](NC(=O)[C@H](CO)NC(=O)[C@@H]1CS[C@@H](C)[C@H]2NC(=O)[C@H](C)NC(=O)[C@H](NC(=O)[C@H](CCCCN)NC(=O)[C@H](CCSC)NC(=O)[C@H](CC(N)=O)NC(=O)[C@@H]3CS[C@@H](C)[C@@H](NC(=O)[C@H](CC(C)C)NC(=O)[C@@H]4CS[C@@H](C)[C@@H](NC(=O)[C@@H]5CSC[C@@H](NC(=O)/C(=C/C)NC(=O)[C@@H](N)[C@@H](C)CC)C(=O)N[C@@H]([C@@H](C)CC)C(=O)NC(=C)C(=O)N[C@@H](CC(C)C)C(=O)N5)C(=O)N5CCC[C@H]5C(=O)NCC(=O)N4)C(=O)NCC(=O)N[C@@H](C)C(=O)N[C@@H](CC(C)C)C(=O)N[C@@H](CCSC)C(=O)NCC(=O)N3)[C@H](C)SC[C@H](NC2=O)C(=O)N[C@@H](Cc2c[nH]cn2)C(=O)N1)[C@@H](C)CC)C(C)C)C(=O)N[C@@H](CCCCN)C(=O)O [K12L] | 10 % of wt | 81 | 130 µg/mL (≈ 38.9 µM) | –
3 | C=C(NC(=O)[C@@H](NC(=O)[C@H](Cc1c[nH]cn1)NC(=O)[C@@H](NC(=O)[C@H](CO)NC(=O)[C@@H]1CS[C@@H](C)[C@H]2NC(=O)[C@H](C)NC(=O)[C@H](NC(=O)[C@H](CCCCN)NC(=O)[C@H](CCSC)NC(=O)[C@H](CC(N)=O)NC(=O)[C@@H]3CS[C@@H](C)[C@@H](NC(=O)[C@H](CCCCN)NC(=O)[C@@H]4CS[C@@H](C)[C@@H](NC(=O)[C@@H]5CSC[C@@H](NC(=O)/C(=C/C)NC(=O)[C@@H](N)[C@@H](C)CC)C(=O)N[C@@H]([C@@H](C)CC)C(=O)N[C@@H](C)C(=O)N[C@@H](CC(C)C)C(=O)N5)C(=O)N5CCC[C@H]5C(=O)NCC(=O)N4)C(=O)NCC(=O)N[C@@H](C)C(=O)N[C@@H](CC(C)C)C(=O)N[C@@H](CCSC)C(=O)NCC(=O)N3)[C@H](C)SC[C@H](NC2=O)C(=O)N[C@@H](Cc2c[nH]cn2)C(=O)N1)[C@@H](C)CC)C(C)C)C(=O)N[C@@H](CCCCN)C(=O)O [nisin A (Dha5A)] | 100 % of wt | 114 | 250 µg/mL (≈ 74.5 µM) | antimicrobial activity against sensitive indicator strains [3]: retained their antimicrobial activity; nisin activity (% of wild type), gene replacement ([1]; plate diffusion bioassay): 100 % of wild type; nisin activity (% of wild type), complementation [4]: 25 % of wild type; Induction (FI7847 [nisA-(fs)]; inducing agent at 1 mg ml^−1): 107
4 | C=C1NC(=O)[C@H]([C@@H](C)CC)NC(=O)[C@H](NC(=O)/C(=C/C)NC(=O)[C@@H](N)[C@@H](C)CC)CSC[C@@H](C(=O)N[C@H]2C(=O)N3CCC[C@H]3C(=O)NCC(=O)N[C@H](C(=O)N[C@@H](CCCCN)C(=O)N[C@H]3C(=O)NCC(=O)N[C@@H](C)C(=O)N[C@@H](CC(C)C)C(=O)N[C@@H](CCSC)C(=O)NCC(=O)N[C@H](C(=O)N[C@@H](CC(N)=O)C(=O)N[C@@H](CCSC)C(=O)N[C@@H](CCCCN)C(=O)N[C@H]4C(=O)N[C@@H](C)C(=O)N[C@H]5C(=O)N[C@@H](CS[C@H]4C)C(=O)N[C@@H](Cc4c[nH]cn4)C(=O)N[C@H](C(=O)N[C@@H](CO)C(=O)N[C@H](C(=O)N[C@@H](Cc4c[nH]cn4)C(=O)N[C@H](C(=O)N[C@@H](C)C(=O)N[C@@H](CCCCN)C(=O)O)C(C)C)[C@@H](C)CC)CS[C@H]5C)CS[C@H]3C)CS[C@H]2C)NC(=O)[C@H](CC(C)C)NC1=O [nisin A (Dha33A)] | 150 % of wt | 17 | 250 µg/mL (≈ 74.5 µM) | antimicrobial activity against sensitive indicator strains [3]: retained their antimicrobial activity; increase over nisin A levels ([1]; cell extract from FI8198, plate diffusion bioassay): approximately 50%; zone of inhibition / inhibitory effect compared with parent strain FI5876 ([1]; cell extracts of gene-replaced strains, plate diffusion bioassay): larger than that of the parent strain; nisin activity (% of wild type), gene replacement ([1]; plate diffusion bioassay): 150 % of wild type; nisin activity (% of wild type), complementation [4]: 10 % of wild type; Induction (FI7847 [nisA-(fs)]; inducing agent at 1 mg ml^−1): 101
5 | H27K, H31K (MSTKDFNLDLVSVSKKDSGASPRITSISLCTPGCKTGALMGCNMKTATCKCSIKVSK; listed as Lactococcus sp.) | 10 % of wt | – | – | –
6 | H31K (MSTKDFNLDLVSVSKKDSGASPRITSISLCTPGCKTGALMGCNMKTATCHCSIKVSK; listed as Lactococcus sp.) | 25 % of wt | – | – | –
7 | S5A, H27W (MSTKDFNLDLVSVSKKDSGASPRITSIALCTPGCKTGALMGCNMKTATCWCSIHVSK; listed as Lactococcus sp.) | 10 % of wt | – | – | –
8 | ΔM21: variant nisin from nisA M21 deletion (SEQ. ID. No. 41), produced by strain FI8290 (MSTKDFNLDLVSVSKKDSGASPRITSISLCTPGCKTGALMGCNKTATCHCSIHVSK; listed as Lactococcus sp.) | <1 % of wt | – | – | –
9 | H27W (MSTKDFNLDLVSVSKKDSGASPRITSISLCTPGCKTGALMGCNMKTATCWCSIHVSK; listed as Lactococcus sp.) | <1 % of wt | – | – | –
10 | C=C(NC(=O)[C@@H](NC(=O)[C@H](Cc1c[nH]cn1)NC(=O)[C@@H](NC(=O)[C@H](CO)NC(=O)[C@@H]1CS[C@@H](C)[C@H]2NC(=O)[C@H](C)NC(=O)[C@H](NC(=O)[C@H](CCCCN)NC(=O)[C@H](CCSC)NC(=O)[C@H](CC(N)=O)NC(=O)[C@@H]3CS[C@@H](C)[C@@H](NC(=O)[C@H](CCCCN)NC(=O)[C@@H]4CS[C@@H](C)[C@@H](NC(=O)[C@@H]5CSC[C@@H](NC(=O)/C(=C/C)NC(=O)[C@@H](N)[C@@H](C)CC)C(=O)N[C@@H]([C@@H](C)CC)C(=O)NC(=C)C(=O)N[C@@H](CC(C)C)C(=O)N5)C(=O)N5CCC[C@H]5C(=O)NCC(=O)N4)C(=O)NCC(=O)N[C@@H](C)C(=O)N[C@@H](CC(C)C)C(=O)N[C@@H](CCSC)C(=O)NCC(=O)N3)[C@H](C)SC[C@H](NC2=O)C(=O)N[C@@H](CCCCN)C(=O)N1)[C@@H](C)CC)C(C)C)C(=O)N[C@@H](CCCCN)C(=O)O [H27K] | 100 % of wt | 86 | 130 µg/mL (≈ 38.9 µM) | –
